The experiment has as its target fully phosphorylated, active Mouse ERK2 protein (Mus musculus (Mouse), UniProt P63085). Briefly: Active ERK2 (aERK) IMAP assay, condition 1. In kind it is biochemical. The note with it: aERK assay condition 1, 30 μM ATP. As to the method: Active ERK2 (aERK) Assay: (Unless Indicated Otherwise, the Data Provided for aERK was obtained using Condition 1)
Activated ERK2 activity was also determined in the IMAP assay format using the procedure outlined above. […] Reactions proceeded for 30 minutes before termination by addition of 60 μl IMAP detection beads in binding buffer. Plates were read as above after 30 minute binding equilibration.

Experimental findings from patent US8999957B2, “Heterocyclic compounds as ERK inhibitors” (Merck Sharp & Dohme Corp., priority 2010, dated 2015) are described below.

By IC50 is commonly meant the concentration that gives 50% inhibition.

Sequence of fully phosphorylated, active Mouse ERK2 protein (P63085 whole entry): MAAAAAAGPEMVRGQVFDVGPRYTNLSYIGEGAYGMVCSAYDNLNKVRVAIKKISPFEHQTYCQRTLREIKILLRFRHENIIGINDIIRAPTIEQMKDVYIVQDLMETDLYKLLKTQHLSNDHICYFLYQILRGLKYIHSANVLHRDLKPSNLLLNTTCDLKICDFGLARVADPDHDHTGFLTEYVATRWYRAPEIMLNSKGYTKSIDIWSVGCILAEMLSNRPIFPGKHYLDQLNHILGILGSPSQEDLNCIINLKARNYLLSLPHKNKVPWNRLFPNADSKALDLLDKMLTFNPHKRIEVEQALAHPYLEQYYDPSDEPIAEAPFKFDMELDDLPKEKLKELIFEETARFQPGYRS

As for `O=C(N[C@@H]1CCCN(Cc2ccccc2C(F)(F)F)C1)c1ccc2[nH]nc(-c3ccc4c(c3)CCO4)c2c1`, the concentration for half-maximal inhibition (IC50) was found to be 1000 nM.

In the case of `N#Cc1cccc(CN2CCC[C@@H](NC(=O)c3ccc4[nH]nc(-c5ccc6c(c5)CCO6)c4c3)C2)c1`, the IC50 was determined as 999 nM.

`O=C(N[C@@H]1CCCN(Cc2c(F)cccc2F)C1)c1ccc2[nH]nc(-c3ccc4c(c3)CCO4)c2c1` registered a 50% inhibitory concentration (IC50) of 173 nM.

The compound `O=C(N[C@@H]1CCCN(Cc2ccc3occc3c2)C1)c1ccc2[nH]nc(-c3ccc4c(c3)CCO4)c2c1` had a half-inhibitory concentration (IC50) of 22.9 nM.

Compound `O=C(N[C@@H]1CNCC[C@H]1c1ccccc1)c1ccc2[nH]nc(-c3ccc4c(c3)CCO4)c2c1` gave an IC50 of 23 nM.

In turn, `CN1CC[C@@H](c2ccccc2)[C@H](NC(=O)c2ccc3[nH]nc(-c4ccc5c(c4)CCO5)c3c2)C1` showed a concentration for half-maximal inhibition (IC50) of 118 nM.

In turn, `O=C(N[C@@H]1CNCC[C@H]1c1ccccc1)c1ccc2[nH]nc(-c3ccc4c(c3)OCO4)c2c1` displayed a half-maximal inhibitory concentration (IC50) of 27.1 nM.

Compound `O=C(N[C@@H]1CNCC[C@H]1c1ccccc1)c1ccc2[nH]nc(-c3ccc4[nH]c(=O)[nH]c4c3)c2c1` came in with an IC50 of 50.1 nM.

The compound `CC(C)Oc1ccc(-c2n[nH]c3ccc(C(=O)N[C@@H]4CNCC[C@H]4c4ccccc4)cc23)cc1` registered a concentration for half-maximal inhibition (IC50) of 49.9 nM.

`CCN1CC[C@@H](c2ccccc2)[C@H](NC(=O)c2ccc3[nH]nc(-c4ccc(OC(C)C)cc4)c3c2)C1` yielded a half-maximal inhibitory concentration (IC50) of 650 nM.

For `CC(C)Oc1ccc(-c2n[nH]c3ccc(C(=O)N[C@@H]4CN(C)CC[C@H]4c4ccccc4)cc23)cc1`, the IC50 worked out at 300 nM.

Regarding `CC(C)Oc1ccc(-c2n[nH]c3ccc(C(=O)N[C@@H]4CNCC[C@H]4c4ccccc4)cc23)cn1`, the IC50 was found to be 84.9 nM.

Compound `CC(C)Oc1ccc(-c2n[nH]c3ccc(C(=O)N[C@@H]4CN(C)CC[C@H]4c4ccccc4)cc23)cn1` yielded a half-inhibitory concentration (IC50) of 300 nM.

Compound `CCN1CC[C@@H](c2ccccc2)[C@H](NC(=O)c2ccc3[nH]nc(-c4ccc(OC(C)C)nc4)c3c2)C1` returned an IC50 of 300 nM.

In turn, `[2H]C([2H])([2H])N1CC[C@@H](c2ccccc2)[C@H](NC(=O)c2ccc3[nH]nc(-c4ccc(OC(C)C)cc4)c3c2)C1` registered an IC50 of 300 nM.

On to `CC(C)(C)OC(=O)N1CC[C@@H](c2ccccc2)[C@H](NC(=O)c2ccc3[nH]nc(-c4ccc5c(c4)CCO5)c3c2)C1`, for which 300 nM corresponded to half-maximal inhibition (IC50).

The compound `O=C(N[C@@H]1CNCC[C@H]1c1ccccc1)c1ccc2[nH]nc(-c3ccc4[nH]ncc4c3)c2c1` yielded an IC50 of 13.7 nM.

`CC(C)Oc1cc(-c2n[nH]c3ccc(C(=O)N[C@@H]4CNCC[C@H]4c4ccccc4)cc23)ccn1` returned an IC50 of 141 nM.

Compound `O=C(N[C@@H]1CCCN(c2ccccc2F)C1)c1ccc2[nH]nc(-c3ccncc3)c2c1` had a concentration for half-maximal inhibition (IC50) of 62.3 nM.

Turning to `COc1cccc(F)c1CN1CCCCC(NC(=O)c2ccc3[nH]nc(-c4ccncc4)c3c2)C1` (stereo not drawn), inhibition was half-maximal at 231 nM (IC50).

The compound `O=C(NC1CCCCN(Cc2c(F)cccc2F)C1)c1ccc2[nH]nc(-c3ccncc3)c2c1` (stereo not drawn) yielded a 50% inhibitory concentration (IC50) of 148 nM.

Consider `O=C(NC1CCCCN(Cc2ccccc2F)C1)c1ccc2[nH]nc(-c3ccncc3)c2c1` (stereo not drawn), for which the IC50 came to 79.2 nM.

On to `O=C(NC1CCCCN(Cc2ccccn2)C1)c1ccc2[nH]nc(-c3ccncc3)c2c1` (stereo not drawn), for which the IC50 is 369 nM.

As for `O=C(NC1CCCCN(CCc2ccccc2)C1)c1ccc2[nH]nc(-c3ccncc3)c2c1` (stereo not drawn), the IC50 stood at 8.72 nM.

As for `O=C(N[C@@H]1CCCN(Cc2c(F)cccc2F)C1)c1ccc2[nH]nc(-c3ccnc(Cl)c3)c2c1`, half-maximal inhibition (IC50) required 62.3 nM.

`O=C(NC1CCCCN(Cc2ccccc2)C1)c1ccc2[nH]nc(-c3ccncc3)c2c1` (stereo not drawn) registered a half-inhibitory concentration (IC50) of 249 nM.

Compound `O=C(NC1CN(C(=O)OCc2ccccc2)CC(F)(F)C1)c1ccc2[nH]nc(-c3ccncc3)c2c1` (stereo not drawn) returned an IC50 of 105 nM.

`COc1cccc(F)c1CN1CC(NC(=O)c2ccc3[nH]nc(-c4ccncc4)c3c2)CC(F)(F)C1` (stereo not drawn) yielded a concentration for half-maximal inhibition (IC50) of 17.4 nM.

The compound `O=C(NC1CN(Cc2c(F)cccc2F)CC(F)(F)C1)c1ccc2[nH]nc(-c3ccncc3)c2c1` (stereo not drawn) gave an IC50 of 241 nM.

Compound `O=C(N[C@@H]1CCCNC1)c1ccc2[nH]nc(-c3ccncc3)c2c1` registered a half-maximal inhibitory concentration (IC50) of 835 nM.

Turning to `O=C(NC1CCCCN(CCCc2ccccc2)C1)c1ccc2[nH]nc(-c3ccncc3)c2c1` (stereo not drawn), half-maximal inhibition (IC50) was put at 72.5 nM.

In the case of `Cc1cc(-c2n[nH]c3ccc(C(=O)N[C@@H]4CCCN(CC(O)c5ccccc5F)C4)cc23)ccn1` (stereo partly drawn), half-maximal inhibition (IC50) required 181 nM.

As for `COc1cccc(F)c1CN1C[C@H](NC(=O)c2ccc3[nH]nc(-c4ccc5nccn5c4)c3c2)C[C@@H](C(F)(F)F)C1`, the IC50 amounted to 181 nM.

In the case of `COc1cccc(F)c1CN1CCC(O[Si](C)(C)C(C)(C)C)C(NC(=O)c2ccc3[nH]nc(-c4ccc5nccn5c4)c3c2)C1` (stereo not drawn), the IC50 was 318 nM.

`COc1cccc(F)c1CN1CCC(O)C(NC(=O)c2ccc3[nH]nc(-c4ccc5nccn5c4)c3c2)C1` (stereo not drawn) registered a 50% inhibitory concentration (IC50) of 42.1 nM.

`COc1cccc(F)c1CN1C[C@H](NC(=O)c2ccc3[nH]nc(-c4ccc5nccn5c4)c3c2)CCC1=O` displayed an IC50 of 69.2 nM.

`O=C(NC12CC1CCN(Cc1ccccc1)C2)c1ccc2[nH]nc(-c3ccc4nccn4c3)c2c1` (stereo not drawn) returned a concentration for half-maximal inhibition (IC50) of 200 nM.

Compound `CN(C)C(=O)[C@@H]1CC[C@@H](NC(=O)c2ccc3[nH]nc(-c4ccncc4)c3c2)CN1Cc1ccccc1` showed an IC50 of 51.3 nM.

Take `COc1ccccc1CCN1CCCCC(NC(=O)c2ccc3[nH]nc(-c4ccncc4)c3c2)C1` (stereo not drawn): the half-inhibitory concentration (IC50) was determined as 31.1 nM.

For the compound `CC(C)C(NC(=O)[C@@H]1CC[C@@H](NC(=O)c2ccc3[nH]nc(-c4ccncc4)c3c2)CN1Cc1ccccc1)C(C)C`, the midpoint of inhibition, the IC50, lay at 262 nM.

Turning to `O=C(NC1CCCCN(CC2CCc3ccccc32)C1)c1ccc2[nH]nc(-c3ccncc3)c2c1` (stereo not drawn), the half-maximal inhibitory concentration (IC50) was 85.4 nM.

Consider `O=C(N[C@@H]1CC[C@H](C(=O)NCc2ccccc2)NC1)c1ccc2[nH]nc(-c3ccncc3)c2c1`, for which the half-inhibitory concentration (IC50) is 371 nM.

Regarding `O=C(N[C@@H]1CC[C@@H](C(=O)NCc2ccccc2)NC1)c1ccc2[nH]nc(-c3ccncc3)c2c1`, half-maximal inhibition (IC50) required 120 nM.

`COc1cccc(F)c1CN1C[C@@H](C)C[C@@H](NC(=O)c2ccc3[nH]nc(-c4ccc5nc(C)sc5c4)c3c2)C1` displayed an IC50 of 3.67 nM.

Consider `COc1cccc(F)c1CN1C[C@H](NC(=O)c2ccc3[nH]nc(-c4ccc5nccn5c4)c3c2)CC(F)(F)C1`, for which the IC50 was 23.9 nM.

As for `O=C(N[C@H]1CN(Cc2c(F)cccc2F)CC(F)(F)C1)c1ccc2[nH]nc(-c3ccc4nccn4c3)c2c1`, the half-inhibitory concentration (IC50) is 234 nM.

`O=C(NC12CC1CCN(Cc1c(F)cccc1F)C2)c1ccc2[nH]nc(-c3ccc4nccn4c3)c2c1` (stereo not drawn) showed an IC50 of 136 nM.

As to `COc1cccc(F)c1CN1CCC2CC2(NC(=O)c2ccc3[nH]nc(-c4ccc5nccn5c4)c3c2)C1` (stereo not drawn), half-maximal inhibition (IC50) was put at 86 nM.

As for `CN1C[C@H](NC(=O)c2ccc3[nH]nc(-c4ccncc4)c3c2)CC[C@H]1C(=O)NCc1ccccc1`, half-maximal inhibition (IC50) required 350 nM.

In the case of `COc1ccccc1CN1CC(NC(=O)c2ccc3[nH]nc(-c4ccncc4)c3c2)CC(F)(F)C1` (stereo not drawn), the 50% inhibitory concentration (IC50) stood at 167 nM.

For `Cc1cccc(C)c1CN1CC(NC(=O)c2ccc3[nH]nc(-c4ccncc4)c3c2)CC(F)(F)C1` (stereo not drawn), it took 457 nM to reach half-maximal inhibition (IC50).

The compound `COC(=O)[C@@H]1CC[C@@H](NC(=O)c2ccc3[nH]nc(-c4ccncc4)c3c2)CN1Cc1c(F)cccc1OC` returned a 50% inhibitory concentration (IC50) of 40.5 nM.

Compound `COc1cccc(F)c1CN1C[C@H](C)C[C@H](NC(=O)c2ccc3[nH]nc(-c4ccc5ncsc5c4)c3c2)C1` had an IC50 of 15.2 nM.

As for `Cn1cc2cc(-c3n[nH]c4ccc(C(=O)N[C@@H]5C[C@H](C(F)(F)F)CN(Cc6c(F)cccc6F)C5)cc34)ccc2n1`, the IC50 came out at 39.8 nM.

Regarding `Cn1cc2cc(-c3n[nH]c4ccc(C(=O)N[C@H]5C[C@@H](C(F)(F)F)CN(Cc6c(F)cccc6F)C5)cc34)ccc2n1`, the IC50 was determined as 375 nM.

`COc1cccc(F)c1CN1C[C@H](NC(=O)c2ccc3[nH]nc(-c4ccncc4)c3c2)CCC1CO` (stereo partly drawn) yielded an IC50 of 3.58 nM.

`O=C(N[C@@H]1CCCN(Cc2c(F)cccc2F)C1)c1ccc2[nH]nc(-c3ccncc3)c2c1` returned a half-inhibitory concentration (IC50) of 36.2 nM.

The compound `O=C(NC1CCCCN(CCc2c(F)cccc2F)C1)c1ccc2[nH]nc(-c3ccncc3)c2c1` (stereo not drawn) gave a 50% inhibitory concentration (IC50) of 43.3 nM.

The compound `COC[C@H]1CC[C@@H](NC(=O)c2ccc3[nH]nc(-c4ccncc4)c3c2)CN1Cc1c(F)cccc1OC` gave a half-inhibitory concentration (IC50) of 456 nM.

`COc1cccc(F)c1CN1CCC[C@@H](NC(=O)c2ccc3[nH]nc(-c4ccncc4)c3c2)C1` gave an IC50 of 13.9 nM.

`COc1cccc(F)c1CN1C[C@H](C)C[C@H](NC(=O)c2ccc3[nH]nc(-c4ccc5nsnc5c4)c3c2)C1` registered an IC50 of 73.6 nM.

Regarding `COc1cccc(F)c1CN1C[C@@H](C)C[C@@H](NC(=O)c2ccc3[nH]nc(-c4ccn5ncnc5c4)c3c2)C1`, the IC50 came out at 15.1 nM.

`COc1cccc(F)c1CN1C[C@@H](C)C[C@@H](NC(=O)c2ccc3[nH]nc(-c4ccc5nonc5c4)c3c2)C1` showed an IC50 of 128 nM.

Regarding `COc1cccc(F)c1CN1C[C@@H](C)C[C@@H](NC(=O)c2ccc3[nH]nc(-c4nc5ccccc5s4)c3c2)C1`, the IC50 was 61.3 nM.

In turn, `Cn1cnnc1CN1CCC[C@@H](NC(=O)c2ccc3[nH]nc(-c4ccncc4)c3c2)C1` yielded an IC50 of 231 nM.

`COCCOc1cccc(F)c1CN1CCC[C@@H](NC(=O)c2ccc3[nH]nc(-c4ccncc4)c3c2)C1`: the 50% inhibitory concentration (IC50) is 16.9 nM.

In the case of `CCOC(=O)C1CCN(Cc2ccccc2)CC1NC(=O)c1ccc2[nH]nc(-c3ccncc3)c2c1` (stereo not drawn), it took 191 nM to reach half-maximal inhibition (IC50).

`O=C(NC1COCCN(CCc2c(F)cccc2F)C1)c1ccc2[nH]nc(-c3ccncc3)c2c1` (stereo not drawn) displayed an IC50 of 20.8 nM.

`O=C(NC1COCCN(CCc2ccccc2F)C1)c1ccc2[nH]nc(-c3ccncc3)c2c1` (stereo not drawn) registered a concentration for half-maximal inhibition (IC50) of 9.84 nM.

With `O=C(NC1COCCN(CCc2cccc(F)c2)C1)c1ccc2[nH]nc(-c3ccncc3)c2c1` (stereo not drawn), the IC50 amounted to 61.6 nM.

Consider `Cc1cc(-c2n[nH]c3ccc(C(=O)NC4CC[C@H]5CC[C@@H]4N5Cc4ccccc4F)cc23)ccn1` (stereo partly drawn), for which half-maximal inhibition (IC50) required 9.1 nM.

For `COc1cccc(F)c1CN1C2CCC(NC(=O)c3ccc4[nH]nc(-c5ccnc(C)c5)c4c3)C1CC2` (stereo not drawn), the half-maximal inhibitory concentration (IC50) turned out to be 20.4 nM.
